This note sets out measurements from patent US20090005395A1 (Solvay Pharmaceuticals, B.V., priority 2007, published 2009).

The structures appear in SMILES notation.

Data set [1] in a line: Plasma and brain concentrations of N-desmethylsildenafil (pilot experiment). The format is in vivo, male NMRI mice. Particulars: mice, i.v. or p.o.; for the N-oxide only observed after oral dosing. Here is the method:
Sildenafil and its N-oxide were analyzed in mouse plasma and brain samples using a generic bioanalytical method comprising protein precipitation and HPLC with MS/MS detection.
Sample preparation: Proteins in 100 μl plasma were precipitated with acetonitrile, and 5 μl samples of the obtained solution were analyzed. Complete brains were homogenized and centrifuged, and 10 μl samples of the supernatant were analyzed.
Liquid Chromatography-Tandem Mass Spectrometry (LC-MS/MS) was performed using a Sciex API4000 LC-MS/MS. Quantification of the samples was done using extracted calibration samples, treated the same as the study samples in the range of 1-5000 ng/ml and 5.0-5000 ng/brain for plasma and brains samples, respectively. Compound peak area was used for quantification. The calibration curves were fitted to the model y=A+Bx+Cx^2 (y is the peak area of the analyte, x is the nominal calibration level in ng/ml (plasma) or ng/g (brain), A is the intercept, B is the slope and C is the description of the curvature). 1/x^2 weighing was used. LC-MS/MS system performance was monitored using a reference solution injected at standard intervals. The method use for testing was not validated in detail, therefore the reported concentrations were good estimations. The Lower Limit Of Quantification (LLOQ) was established at 1.00 ng/ml and 5.00 ng/brain, for plasma and brain samples, respectively. […]

The nature of data set [2]: Reduction of sildenafil N-oxide in the human colon model TIM2. Format: in vitro ADME. On the procedure:
The human colon model TIM2 (TNO Intestinal Model 2) is a dynamic model for the human large intestine that simulates in vivo conditions. It is an artificial digestive system that has been validated by many studies (Minekus, 1999).
Suspended in 1% methylcellulose, sildenafil-N-oxide (1 mg) was inserted into the lumen (120 ml) of the TIM2 model (see above, Minekus, 1999). Samples from the lumen and the dialysate (the latter being a model for the vascular bed of the intestines) were taken at various time intervals, and analyzed for sildenafil-N-oxide and sildenafil.

The subject of data set [3] is PDE-IV. The experiment in a line: In vitro inhibition of phosphodiesterases (CEREP): PDE-IV. Particulars: human U-937 monocytes.
Where [4] appears, read: TIM2, 1 mg in 1% methylcellulose into lumen (120 ml), 0 h.
The mark [5] stands for this setting: TIM2, 1 mg into lumen (120 ml), 2 h.
[6] abbreviates: TIM2, 1 mg into lumen (120 ml), 4 h.
The mark [7] stands for this setting: TIM2, 1 mg into lumen (120 ml), 6 h.
[8] abbreviates: TIM2, 1 mg into lumen (120 ml), 8 h.
The mark [9] stands for this setting: TIM2, 1 mg into lumen (120 ml), 24 h.

As for `CCCc1nn(C)c2c(=O)[nH]c(-c3cc(S(=O)(=O)N4CC[N+](C)([O-])CC4)ccc3OCC)nc12` [Sildenafil-N-oxide, 1-[[3-(6,7-dihydro-1-methyl-7-oxo-3-propyl-1H-pyrazolo[4,3-d]pyrimidin-5-yl)-4-ethoxyphenyl]sulfonyl]-4-methyl-4-oxido-piperazine], the “metabolism to N-desmethylsildenafil” value in data set [1] is on record as “metabolized to N-desmethylsildenafil”. In addition, the “Sildenafil-N-oxide Dialysate concentration” value in data set [2] (setting [4]) is <1.0 ng/mL; in data set [2] (setting [5]) it was 33 ng/mL; in data set [2] (setting [6]), <1.0 ng/mL; in data set [2] (setting [7]), <1.0 ng/mL; in data set [2] (setting [8]), <1.0 ng/mL; in data set [2] (setting [9]) it was <1.0 ng/mL. In addition, the “Sildenafil-N-oxide Lumen concentration” value is <1.0 ng/mL in data set [2] (setting [4]); 6.6 ng/mL in data set [2] (setting [5]); 4.7 ng/mL in data set [2] (setting [6]); 4.9 ng/mL in data set [2] (setting [7]); 6.7 ng/mL in data set [2] (setting [8]); 2.7 ng/mL in data set [2] (setting [9]). Moreover, in data set [2] (within 2 hours after dosing), the “reduction to sildenafil in TIM2” value is given as “nearly quantitatively reduced to sildenafil”. The “pIC50 PDE-IV” value in data set [3] is <5.0.
